Reference: the supplement of paper PMC10733146

Legend:
Test in all cases: viability relative to DMSO control (fraction); higher = less drug effect (more viable cells)
Conditions in all cases: 48 h
[1] = test system: primary ALL patient cells (S048)
Procedure, shortened: (§1)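 Using 384-well plates with compounds already plated at five concentrations, one well per concentration, 4 × 10^4 primary mononuclear tumour cells were added per well. Cells were Ficoll-isolated from blood or bone marrow or came from processed lymph node, fresh or cryopreserved. They were kept for 48 h at 37 °C and 5% CO2 in RPMI-1640 supplemented with penicillin/streptomycin, L-glutamine and human serum, and viability was read as CellTiter-Glo luminescence relative to the median of 16 inner DMSO wells.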

[2] = test system: primary AML patient cells (S002)
Procedure, shortened: as §1

[3] = test system: primary AML patient cells (S006)
Procedure, shortened: as §1

[4] = test system: primary AML patient cells (S009)
Procedure, shortened: as §1

[5] = test system: primary AML patient cells (S012)
Procedure, shortened: as §1

[6] = test system: primary AML patient cells (S017)
Procedure, shortened: as §1

[7] = test system: primary AML patient cells (S021)
Procedure, shortened: as §1

[8] = test system: primary AML patient cells (S025)
Procedure, shortened: as §1

[9] = test system: primary AML patient cells (S055)
Procedure, shortened: as §1

[10] = test system: primary AML patient cells (S056)
Procedure, shortened: as §1

[11] = test system: primary AML patient cells (S072)
Procedure, shortened: as §1

[12] = test system: primary AML patient cells (S079)
Procedure, shortened: as §1

[13] = test system: primary AML patient cells (S081)
Procedure, shortened: as §1

[14] = test system: primary BL patient cells (S005)
Procedure, shortened: as §1

[15] = test system: primary CLL patient cells (S043)
Procedure, shortened: as §1

[16] = test system: primary FL patient cells (S022)
Procedure, shortened: as §1

[17] = test system: primary MCL patient cells (S053)
Procedure, shortened: as §1

[18] = test system: primary MCL patient cells (S063)
Procedure, shortened: as §1

[19] = test system: primary MCL patient cells (S068)
Procedure, shortened: as §1

[20] = test system: primary T-PLL patient cells (S008)
Procedure, shortened: as §1

CC[C@H](Nc1ncnc2[nH]cnc12)c1nc2cccc(F)c2c(=O)n1-c1ccccc1 [Idelalisib]
viability ([1]; 0.0032 µM): 1.01 | viability ([1]; 0.016 µM): 0.934 | viability ([1]; 0.08 µM): 0.861 | viability ([1]; 0.4 µM): 0.751 | viability ([1]; 2 µM): 0.752 | viability ([2]; 0.0032 µM): 0.969 | viability ([2]; 0.016 µM): 1.02 | viability ([2]; 0.08 µM): 0.957 | viability ([2]; 0.4 µM): 0.924 | viability ([2]; 2 µM): 0.785 | viability ([3]; 0.0032 µM): 1.02 | viability ([3]; 0.016 µM): 0.97 | viability ([3]; 0.08 µM): 0.943 | viability ([3]; 0.4 µM): 0.885 | viability ([3]; 2 µM): 0.882 | viability ([4]; 0.0032 µM): 0.985 | viability ([4]; 0.016 µM): 1.02 | viability ([4]; 0.08 µM): 1.04 | viability ([4]; 0.4 µM): 0.998 | viability ([4]; 2 µM): 0.905 | viability ([5]; 0.0032 µM): 1.02 | viability ([5]; 0.016 µM): 0.982 | viability ([5]; 0.08 µM): 1.18 | viability ([5]; 0.4 µM): 1.04 | viability ([5]; 2 µM): 1.06 | viability ([6]; 0.0032 µM): 1.09 | viability ([6]; 0.016 µM): 1.1 | viability ([6]; 0.08 µM): 1.16 | viability ([6]; 0.4 µM): 0.988 | viability ([6]; 2 µM): 0.808 | viability ([7]; 0.0032 µM): 1.03 | viability ([7]; 0.016 µM): 0.928 | viability ([7]; 0.08 µM): 0.843 | viability ([7]; 0.4 µM): 0.827 | viability ([7]; 2 µM): 0.741 | viability ([8]; 0.0032 µM): 0.92 | viability ([8]; 0.016 µM): 0.935 | viability ([8]; 0.08 µM): 0.959 | viability ([8]; 0.4 µM): 1.14 | viability ([8]; 2 µM): 0.924 | viability ([9]; 0.0032 µM): 1 | viability ([9]; 0.016 µM): 0.961 | viability ([9]; 0.08 µM): 0.909 | viability ([9]; 0.4 µM): 0.972 | viability ([9]; 2 µM): 0.875 | viability ([10]; 0.0032 µM): 1.02 | viability ([10]; 0.016 µM): 1.02 | viability ([10]; 0.08 µM): 0.954 | viability ([10]; 0.4 µM): 0.896 | viability ([10]; 2 µM): 0.911 | viability ([11]; 0.0032 µM): 0.995 | viability ([11]; 0.016 µM): 0.883 | viability ([11]; 0.08 µM): 0.922 | viability ([11]; 0.4 µM): 0.82 | viability ([11]; 2 µM): 0.803 | viability ([12]; 0.0032 µM): 1.01 | viability ([12]; 0.016 µM): 0.954 | viability ([12]; 0.08 µM): 0.906 | viability ([12]; 0.4 µM): 0.844 | viability ([12]; 2 µM): 0.793 | viability ([13]; 0.0032 µM): 1.07 | viability ([13]; 0.016 µM): 1.04 | viability ([13]; 0.08 µM): 1.06 | viability ([13]; 0.4 µM): 1.07 | viability ([13]; 2 µM): 1.03 | viability ([14]; 0.0032 µM): 1 | viability ([14]; 0.016 µM): 0.95 | viability ([14]; 0.08 µM): 0.982 | viability ([14]; 0.4 µM): 1.01 | viability ([14]; 2 µM): 0.86 | viability ([15]; 0.0032 µM): 0.909 | viability ([15]; 0.016 µM): 0.805 | viability ([15]; 0.08 µM): 0.719 | viability ([15]; 0.4 µM): 0.745 | viability ([15]; 2 µM): 0.691 | viability ([16]; 0.0032 µM): 1.05 | viability ([16]; 0.016 µM): 1.09 | viability ([16]; 0.08 µM): 0.955 | viability ([16]; 0.4 µM): 0.939 | viability ([16]; 2 µM): 0.929 | viability ([17]; 0.0032 µM): 1.02 | viability ([17]; 0.016 µM): 0.96 | viability ([17]; 0.08 µM): 0.946 | viability ([17]; 0.4 µM): 0.877 | viability ([17]; 2 µM): 0.815 | viability ([18]; 0.0032 µM): 0.918 | viability ([18]; 0.016 µM): 0.792 | viability ([18]; 0.08 µM): 0.73 | viability ([18]; 0.4 µM): 0.693 | viability ([18]; 2 µM): 0.595 | viability ([19]; 0.0032 µM): 0.888 | viability ([19]; 0.016 µM): 0.755 | viability ([19]; 0.08 µM): 0.663 | viability ([19]; 0.4 µM): 0.612 | viability ([19]; 2 µM): 0.558 | viability ([20]; 0.0032 µM): 1 | viability ([20]; 0.016 µM): 0.97 | viability ([20]; 0.08 µM): 1.03 | viability ([20]; 0.4 µM): 0.99 | viability ([20]; 2 µM): 0.992

N#Cc1ccnc(N2C(=O)CC[C@H]2C(=O)N(c2cncc(F)c2)[C@H](C(=O)NC2CC(F)(F)C2)c2ccccc2Cl)c1 [AG-120]
viability ([1]; 0.024 µM): 0.828 | viability ([1]; 0.12 µM): 0.865 | viability ([1]; 0.6 µM): 0.735 | viability ([1]; 3 µM): 1.01 | viability ([1]; 15 µM): 0.745 | viability ([2]; 0.024 µM): 0.901 | viability ([2]; 0.12 µM): 0.897 | viability ([2]; 0.6 µM): 0.849 | viability ([2]; 3 µM): 0.951 | viability ([2]; 15 µM): 0.766 | viability ([3]; 0.024 µM): 1.07 | viability ([3]; 0.12 µM): 1.13 | viability ([3]; 0.6 µM): 0.986 | viability ([3]; 3 µM): 1.08 | viability ([3]; 15 µM): 0.901 | viability ([4]; 0.024 µM): 0.974 | viability ([4]; 0.12 µM): 0.96 | viability ([4]; 0.6 µM): 1.04 | viability ([4]; 3 µM): 0.943 | viability ([4]; 15 µM): 0.915 | viability ([5]; 0.024 µM): 1.03 | viability ([5]; 0.12 µM): 1.06 | viability ([5]; 0.6 µM): 1.04 | viability ([5]; 3 µM): 0.987 | viability ([5]; 15 µM): 0.985 | viability ([6]; 0.024 µM): 1.04 | viability ([6]; 0.12 µM): 0.988 | viability ([6]; 0.6 µM): 1.16 | viability ([6]; 3 µM): 1.02 | viability ([6]; 15 µM): 0.908 | viability ([7]; 0.024 µM): 0.985 | viability ([7]; 0.12 µM): 0.875 | viability ([7]; 0.6 µM): 0.743 | viability ([7]; 3 µM): 0.761 | viability ([7]; 15 µM): 0.692 | viability ([8]; 0.024 µM): 1.04 | viability ([8]; 0.12 µM): 1.06 | viability ([8]; 0.6 µM): 0.85 | viability ([8]; 3 µM): 0.934 | viability ([8]; 15 µM): 0.826 | viability ([9]; 0.024 µM): 1.11 | viability ([9]; 0.12 µM): 1.13 | viability ([9]; 0.6 µM): 1.01 | viability ([9]; 3 µM): 1.09 | viability ([9]; 15 µM): 0.964 | viability ([10]; 0.024 µM): 0.866 | viability ([10]; 0.12 µM): 0.833 | viability ([10]; 0.6 µM): 0.72 | viability ([10]; 3 µM): 0.74 | viability ([10]; 15 µM): 0.577 | viability ([11]; 0.024 µM): 0.983 | viability ([11]; 0.12 µM): 1.1 | viability ([11]; 0.6 µM): 0.87 | viability ([11]; 3 µM): 0.919 | viability ([11]; 15 µM): 0.799 | viability ([12]; 0.024 µM): 0.978 | viability ([12]; 0.12 µM): 0.983 | viability ([12]; 0.6 µM): 0.879 | viability ([12]; 3 µM): 0.959 | viability ([12]; 15 µM): 0.844 | viability ([13]; 0.024 µM): 0.994 | viability ([13]; 0.12 µM): 1.01 | viability ([13]; 0.6 µM): 0.925 | viability ([13]; 3 µM): 1.11 | viability ([13]; 15 µM): 0.968 | viability ([14]; 0.024 µM): 0.99 | viability ([14]; 0.12 µM): 1.02 | viability ([14]; 0.6 µM): 1.43 | viability ([14]; 3 µM): 1.01 | viability ([14]; 15 µM): 1.31 | viability ([15]; 0.024 µM): 0.819 | viability ([15]; 0.12 µM): 0.925 | viability ([15]; 0.6 µM): 0.925 | viability ([15]; 3 µM): 0.91 | viability ([15]; 15 µM): 0.837 | viability ([16]; 0.024 µM): 0.858 | viability ([16]; 0.12 µM): 0.833 | viability ([16]; 0.6 µM): 0.838 | viability ([16]; 3 µM): 0.905 | viability ([16]; 15 µM): 0.777 | viability ([17]; 0.024 µM): 0.945 | viability ([17]; 0.12 µM): 0.911 | viability ([17]; 0.6 µM): 0.593 | viability ([17]; 3 µM): 0.887 | viability ([17]; 15 µM): 0.641 | viability ([18]; 0.024 µM): 1.16 | viability ([18]; 0.12 µM): 1.1 | viability ([18]; 0.6 µM): 0.929 | viability ([18]; 3 µM): 1.15 | viability ([18]; 15 µM): 0.789 | viability ([19]; 0.024 µM): 0.995 | viability ([19]; 0.12 µM): 1.02 | viability ([19]; 0.6 µM): 0.898 | viability ([19]; 3 µM): 1.05 | viability ([19]; 15 µM): 1.18 | viability ([20]; 0.024 µM): 1.04 | viability ([20]; 0.12 µM): 1.09 | viability ([20]; 0.6 µM): 1.03 | viability ([20]; 3 µM): 1.04 | viability ([20]; 15 µM): 1.02
